Experimental data from PubChem BioAssay AID330 (DTP/NCI, 2004).
“And” between values parts separate entries of the source, which are not always exact repeats. Identical values can stand only once. Inconclusive results and toxic doses are left out.

Test system: P388 leukemia ip, CD2F1 mice, survival T/C
Assay: NCI In Vivo Anticancer Drug Screen. Data for tumor model P388 Leukemia (intraperitoneal) in CD2F1 (CDF1) mice
Conditions: endpoint: median survival time, higher = longer survival
In short: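 Mice carrying the transplanted tumor received test compound or vehicle. Survival was recorded in each group, and the value is the treated-group measurement divided by that of the vehicle-treated control group.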

[1] = dose: 50.0 mg/kg/injection, schedule: Q01DX005 (ip), vehicle: saline with Tween-80
[2] = dose: 100.0 mg/kg/injection, schedule: Q01DX005 (ip), vehicle: saline with Tween-80
[3] = dose: 200.0 mg/kg/injection, schedule: Q01DX005 (ip), vehicle: saline with Tween-80
[4] = dose: 50.0 mg/kg/injection, schedule: Q01DX009 (ip), vehicle: saline
[5] = dose: 100.0 mg/kg/injection, schedule: Q01DX009 (ip), vehicle: saline
[6] = dose: 200.0 mg/kg/injection, schedule: Q01DX009 (ip), vehicle: saline
[7] = dose: 12.5 mg/kg/injection, schedule: Q01DX009 (ip), vehicle: saline
[8] = dose: 50.0 mg/kg/injection, schedule: Q01DX009 (ip), vehicle: Klucel (hydroxypropylcellulose) (HPC)
[9] = dose: 200.0 mg/kg/injection, schedule: Q01DX009 (ip), vehicle: Klucel (hydroxypropylcellulose) (HPC)
[10] = dose: 100.0 mg/kg/injection, schedule: Q04DX003 (ip), vehicle: saline with Tween-80
[11] = dose: 200.0 mg/kg/injection, schedule: Q04DX003 (ip), vehicle: saline with Tween-80
[12] = dose: 100.0 mg/kg/injection, schedule: Q01DX001 (ip), vehicle: Klucel (hydroxypropylcellulose) (HPC)
[13] = dose: 100.0 mg/kg/injection, schedule: Q01DX009 (ip), vehicle: saline with Tween-80
[14] = dose: 200.0 mg/kg/injection, schedule: Q01DX009 (ip), vehicle: saline with Tween-80
[15] = dose: 400.0 mg/kg/injection, schedule: Q01DX009 (ip), vehicle: saline with Tween-80
[16] = dose: 50.0 mg/kg/injection, schedule: Q01DX005 (ip), vehicle: saline
[17] = dose: 100.0 mg/kg/injection, schedule: Q01DX005 (ip), vehicle: saline
[18] = dose: 60.0 mg/kg/injection, schedule: Q01DX005 (ip), vehicle: saline with Tween-80
[19] = dose: 120.0 mg/kg/injection, schedule: Q01DX005 (ip), vehicle: saline with Tween-80
[20] = dose: 240.0 mg/kg/injection, schedule: Q01DX005 (ip), vehicle: saline with Tween-80
[21] = dose: 12.5 mg/kg/injection, schedule: Q01DX009 (ip), vehicle: saline with Tween-80
[22] = dose: 25.0 mg/kg/injection, schedule: Q01DX009 (ip), vehicle: saline with Tween-80
[23] = dose: 50.0 mg/kg/injection, schedule: Q01DX009 (ip), vehicle: saline with Tween-80
[24] = dose: 50.0 mg/kg/injection, schedule: Q01DX005 (ip), vehicle: Klucel (hydroxypropylcellulose) (HPC)
[25] = dose: 100.0 mg/kg/injection, schedule: Q01DX005 (ip), vehicle: Klucel (hydroxypropylcellulose) (HPC)
[26] = dose: 200.0 mg/kg/injection, schedule: Q01DX005 (ip), vehicle: Klucel (hydroxypropylcellulose) (HPC)

Cc1cc(N)ncc1[N+](=O)[O-]
T/C [1]: 99 % of control
T/C [2]: 101 % of control
T/C [3]: 98 % of control

NC(N)=NCCCC(N)C(=O)O (centres undefined)
T/C [4]: 119 % of control
T/C [5]: 100 % of control and 122 % of control
T/C [6]: 105 % of control and 110 % of control
T/C (dose: 400.0 mg/kg/injection, schedule: Q01DX009 (ip), vehicle: saline): 100 % of control

CCOC(=O)c1ccc(N2C(=O)C=CC2=O)cc1
T/C (dose: 3.12 mg/kg/injection, schedule: Q01DX009 (ip), vehicle: saline): 98 % of control
T/C (dose: 6.25 mg/kg/injection, schedule: Q01DX009 (ip), vehicle: saline): 98 % of control
T/C [7]: 96 % of control

C=Cc1cnc([N+](=O)[O-])n1C
T/C [8]: 110 % of control and 123 % of control
T/C (dose: 100.0 mg/kg/injection, schedule: Q01DX009 (ip), vehicle: Klucel (hydroxypropylcellulose) (HPC)): 111 % of control
T/C [9]: 153 % of control

C[C@]12CCCC[C@@H]1CC[C@@H]1[C@@H]2[C@@H](O)C[C@]2(C)[C@@H](O)CC[C@@H]12
T/C [10]: 91 % of control
T/C [11]: 100 % of control

Cc1ccc(-c2nc3n(c2/C=N/NS(=O)(=O)c2ccc(C)cc2)CCS3)cc1
T/C [12]: 100 % of control
T/C (dose: 200.0 mg/kg/injection, schedule: Q01DX001 (ip), vehicle: Klucel (hydroxypropylcellulose) (HPC)): 93 % of control
T/C (dose: 400.0 mg/kg/injection, schedule: Q01DX001 (ip), vehicle: Klucel (hydroxypropylcellulose) (HPC)): 91 % of control

COc1ccc(C(=O)C(=O)c2ccc(OC)c(OC)c2)cc1OC
T/C [13]: 96 % of control
T/C [14]: 96 % of control
T/C [15]: 92 % of control

O=S(=O)(/C=C\c1ccccc1)/C=C/c1ccc(F)cc1
T/C [1]: 111 % of control
T/C [2]: 97 % of control
T/C [3]: 94 % of control

CC(C)C(O)(C(=O)OCC1=CCN2CCC(O)C12)C(C)O (centres undefined)
T/C [16]: 103 % of control
T/C [17]: 109 % of control
T/C (dose: 200.0 mg/kg/injection, schedule: Q01DX005 (ip), vehicle: saline): 117 % of control

NCCNCC[OH2+].NCCNCC[OH2+].O=[N+]([O-])[O-].[Ni+2]
T/C [7]: 93 % of control
T/C (dose: 25.0 mg/kg/injection, schedule: Q01DX009 (ip), vehicle: saline): 102 % of control

CN(Nc1ccnc(=O)[nH]1)c1ccccc1
T/C [18]: 105 % of control
T/C [19]: 102 % of control
T/C [20]: 93 % of control

CCOC(=O)NN(C(=O)OCC)/C(C(=O)OCC)=C(/C)N
T/C [4]: 97 % of control and 102 % of control and 93 % of control
T/C [5]: 97 % of control and 104 % of control
T/C [6]: 98 % of control and 89 % of control

S=C(S)N(Cc1ccccc1)Cc1ccccc1 (tested in a mixture with another compound)
T/C [18]: 105 % of control
T/C [19]: 105 % of control
T/C [20]: 101 % of control

CN(CCCN(C)CCC1CCCCC1)CCC1CCCCC1
T/C [21]: 100 % of control
T/C [22]: 103 % of control
T/C [23]: 105 % of control

N#CC1(N)CC2CCCCC2CC1c1ccccc1 (centres undefined)
T/C (dose: 100.0 mg/kg/injection, schedule: Q04DX002 (ip), vehicle: saline with Tween-80): 106 % of control
T/C (dose: 200.0 mg/kg/injection, schedule: Q04DX002 (ip), vehicle: saline with Tween-80): 101 % of control
T/C (dose: 400.0 mg/kg/injection, schedule: Q04DX002 (ip), vehicle: saline with Tween-80): 101 % of control

CSCCCNCc1ccccc1
T/C [16]: 100 % of control
T/C [17]: 106 % of control

CC(=O)Oc1c2c(c(C)c3ccccc13)C(=O)c1cccnc1C2=O
T/C (dose: 100.0 mg/kg/injection, schedule: Q01DX001 (ip), vehicle: saline): 98 % of control
T/C (dose: 200.0 mg/kg/injection, schedule: Q01DX001 (ip), vehicle: saline): 89 % of control
T/C (dose: 400.0 mg/kg/injection, schedule: Q01DX001 (ip), vehicle: saline): 92 % of control

O=c1c(O)c(O)c1=O.[NH2-].[NH2-].[NH2-].[NH2-].[NH2-].[Ru+5]
T/C (dose: 10.56 mg/kg/injection, schedule: Q04DX002 (ip), vehicle: suspension in saline): 121 % of control

Cc1ccc(C)c(NC(=O)Nc2nccs2)c1
T/C (dose: 25.0 mg/kg/injection, schedule: Q01DX009 (ip), vehicle: Klucel (hydroxypropylcellulose) (HPC)): 99 % of control
T/C [8]: 90 % of control
T/C [9]: 91 % of control

O=Nc1ccc(Cn2cc(Br)c(=O)[nH]c2=O)o1
T/C (dose: 25.0 mg/kg/injection, schedule: Q01DX001 (ip), vehicle: Klucel (hydroxypropylcellulose) (HPC)): 113 % of control
T/C (dose: 50.0 mg/kg/injection, schedule: Q01DX001 (ip), vehicle: Klucel (hydroxypropylcellulose) (HPC)): 100 % of control
T/C [12]: 108 % of control

c1ccc(-c2cc(-c3ccccc3)o/c(=N/n3cnnc3)c2)cc1
T/C [24]: 99 % of control
T/C [25]: 89 % of control
T/C [26]: 89 % of control

Nc1nccc(CC(O)(c2ccccc2)c2ccccc2)n1
T/C (dose: 15.0 mg/kg/injection, schedule: Q01DX005 (ip), vehicle: saline with Tween-80): 102 % of control
T/C (dose: 30.0 mg/kg/injection, schedule: Q01DX005 (ip), vehicle: saline with Tween-80): 102 % of control
T/C [18]: 99 % of control and 100 % of control
T/C [19]: 95 % of control
T/C [20]: 87 % of control

O=P(O)(O)SP(=O)(O)O.[Zn+2]
T/C (dose: 100.0 mg/kg/injection, schedule: Q04DX003 (ip), vehicle: Klucel (hydroxypropylcellulose) (HPC)): 101 % of control
T/C (dose: 200.0 mg/kg/injection, schedule: Q04DX003 (ip), vehicle: Klucel (hydroxypropylcellulose) (HPC)): 105 % of control

CCS/C(C#N)=C/c1ccccc1
T/C [23]: 109 % of control
T/C [13]: 115 % of control

CC(NC(=O)OCc1ccccc1)C(=O)NCC(=O)OCc1ccccc1 (centres undefined)
T/C [24]: 100 % of control
T/C [25]: 98 % of control
T/C [26]: 104 % of control

NC(=O)CNC(=O)NC(Cc1ccccc1)C(=O)O (centres undefined)
T/C [1]: 105 % of control
T/C [2]: 105 % of control
T/C [3]: 86 % of control

N#CC(Cc1ccc(CC(C#N)(c2ccccc2)c2ccccn2)cc1)(c1ccccc1)c1ccccn1 (centres undefined)
T/C [18]: 100 % of control
T/C [19]: 91 % of control
T/C [20]: 86 % of control

COC(=O)/C=C1\C(=O)OC2(C)CCCCC12 (centres undefined)
T/C [23]: 95 % of control
T/C [13]: 97 % of control
T/C [14]: 100 % of control

O=C(c1ccccc1)N(C(=O)c1ccccc1)c1ccccn1
T/C [21]: 103 % of control
T/C [22]: 106 % of control
T/C [23]: 112 % of control
T/C [13]: 87 % of control
T/C [14]: 86 % of control
T/C [15]: 93 % of control

CCCCCOn1nnc2ccccc21
T/C [10]: 101 % of control
T/C [11]: 101 % of control
T/C (dose: 400.0 mg/kg/injection, schedule: Q04DX003 (ip), vehicle: saline with Tween-80): 101 % of control

CSC(SC)(SC)SC
T/C [23]: 94 % of control
T/C [13]: 109 % of control

O=Nc1c(=O)[nH]c(O)c2ccccc12
T/C (dose: 25.0 mg/kg/injection, schedule: Q01DX005 (ip), vehicle: saline with Tween-80): 100 % of control
T/C [1]: 107 % of control
T/C [2]: 93 % of control
